Data taken from patent EP4571315A1, “DIAGNOSTIC USE OF HIGHLY TOXIC AMYLOID OLIGOMER” (Shen Zhen Wisdom Biopharm Co., Ltd., priority 2022, dated 2024).

System: N2a cells
Assay: MTT assay, cytotoxicity to N2a cells
Assay type: cell-based
Details: for cell death: 0.5 nM; for IC50: 72 hours, read-out: half-inhibitory concentration (IC50) on cell viability
Description: This experiment mainly used the MTT assay to detect the toxicity of Aβ aggregates to neurons. The specific procedure was as follows: N2a cells were cultured in DMEM medium containing 10% FBS and 1% penicillin/streptomycin. The cells in the culture dish were digested with trypsin, centrifuged, and resuspended in the medium, and then inoculated in a 96-well plate, with about 5,000 cells/100 µL medium per well. After 12 hours, the cells were treated with a series of concentration gradients of sApo*3F and sAβos, and the same volume of solvent was added to the cells as a control. After 72 hours, 25 µL 5 mg/mL MTT was added to each well. After further culture at 37 °C for 3 hours, the medium was aspirated and 150 µL DMSO was added. The absorbance at 570 nm and 630 nm was measured using an MD-M5 microplate reader. The average value of six replicate wells was used for each sample and control, and each experiment was repeated three times. Cell viability was calculated by dividing the absorbance (background corrected) of the sample well with the absorbance (background corrected) of the well added with solvent.

| Substance | cell death | difference between the two IC50s (sAβos before immunoprecipitation vs sApo*3F) (MTT) | IC50 (MTT) | cytotoxicity / neurotoxicity (200 nM) |
| --- | --- | --- | --- | --- |
| sApo*3F: Aβo*3F prepared in vitro: Aβ monomers incubated 2 days, immunoprecipitated with the antibody 3F | 66% | 340 fold | ~0.186 nM | – |
| sAβos: Aβos prepared in vitro, 10 µM Aβ, 2-day incubation, before immunoprecipitation | no substantial neurotoxic effect | – | ~63.3 nM | 70% |
